Results published in patent US7868028B2 (priority 2002, dated 2011).
“And” between values parts separate entries of the source, which are not always exact repeats. Identical values can stand only once.

Experiments:
Male Sprague-Dawley rats = conditions: rat, in vivo; further: test concentration or dose not given here
[1] = system: voltage-gated sodium channel (site 1, [3H]Saxitoxin binding); set-up: species or system rat; on % inhibition: test concentration or dose not given here

Row | Compound | Average % MPE 5 minutes (Male Sprague-Dawley rats) | Average % MPE Day 4 (Male Sprague-Dawley rats) | % inhibition [1] | IC50 [1]
1 | Cl.N=c1n(Cc2ccccc2)c2ccccc2n1CC(O)COc1ccc(Cl)cc1 (stereo not drawn) [Compound 1] | 100 % MPE | 3 % MPE | 59% | 15 µM
2 | Cl.N=c1n(Cc2ccccc2)c2ccccc2n1CC(O)c1ccc(Cl)cc1 (stereo not drawn) [Compound 7] | 100 % MPE | 32 % MPE | 51% | 60 µM
3 | CCCCn1c(=N)n(CC(O)COc2ccc(Cl)cc2)c2ccccc21.Cl (racemic) [Compound 10] | 26 % MPE | 19 % MPE | 42% | 96 µM
4 | CCn1c(=N)n(CC(O)c2ccc(Cl)c(Cl)c2)c2ccccc21.Cl (stereo not drawn) [Compound 9] | 100 % MPE | 34 % MPE | 46% | 89 µM
5 | Cl.N=c1n(Cc2ccccc2)c2ccccc2n1CC(O)c1ccc(Cl)c(Cl)c1 (racemic) [Compound 2] | 100 % MPE | 1 % MPE | 46% | 21 µM
6 | CCCCn1c(=N)n(CC(O)COc2ccccc2)c2ccccc21.Cl (racemic) [Compound 8] | 100 % MPE |  | 41% | 87 µM
7 | Cl.N=c1n(Cc2ccccc2)c2ccccc2n1CC(O)c1ccccc1 (racemic) [Compound 5] | 100 % MPE | 7 % MPE | 38% | 41 µM
8 | Cl.N=c1n(Cc2ccccc2)c2ccccc2n1CC(O)c1cccs1 (racemic) [Compound 6] | 93 % MPE and 80 % MPE and 100 % MPE |  | 52% | 43 µM
9 | Cc1ccc(Cn2c(=N)n(CC(O)c3ccc(Cl)c(Cl)c3)c3ccccc32)cc1.Cl (stereo not drawn) [Compound 11] | 34 % MPE | 18 % MPE | 48% | 155 µM
10 | Br.N=c1n(Cc2ccccc2)c2ccccc2n1CC(O)COCc1ccccc1 (stereo not drawn) [Compound 71] | 100 % MPE | 2 % MPE | 34% | 30 µM
11 | CCCn1c(=N)n(CC(C)O)c2ccccc21.Cl (stereo not drawn) [Compound 61] |  |  | — (key: —: A dash (-) indicates less than 10% inhibition was observed in this test) | 
12 | CCCn1c(=N)n(CC(O)c2ccc(Cl)cc2)c2ccccc21.Cl (racemic) [Compound 48] |  |  | 32% | 
13 | Cl.N=c1n(Cc2ccccc2)c2ccccc2n1CC(O)c1ccc(Br)cc1 (stereo not drawn) [Compound 63] |  |  | — (key: —: A dash (-) indicates less than 10% inhibition was observed in this test) | 
14 | Cl.Cn1c(=N)n(CC(O)c2cccs2)c2ccccc21 (stereo not drawn) [Compound 34] |  |  | 20% | 
15 | Br.N=c1n(Cc2ccccc2)c2ccccc2n1CC(O)Cc1ccccc1 (racemic) [Compound 77] |  |  | 27% | 81 µM
16 | Cl.N=c1n(CCN2CCCCC2)c2ccccc2n1CC(O)c1ccccc1 (stereo not drawn) [Compound 30] |  |  | 18% | 
17 | CCN(CC)CCn1c(=N)n(CC(O)c2ccc(Cl)c(Cl)c2)c2ccccc21.Cl (stereo not drawn) [Compound 42] |  |  | 25% | 
18 | Cl.N=c1n(CCN2CCOCC2)c2ccccc2n1CC(O)COc1ccccc1 (racemic) [Compound 33] |  |  | 20% | 
19 | CCCn1c(=N)n(CC(O)c2ccc(C)cc2)c2ccccc21.Cl (stereo not drawn) [Compound 60] |  |  | — (key: —: A dash (-) indicates less than 10% inhibition was observed in this test) | 
20 | C=CCn1c(=N)n(CC(O)COc2ccccc2)c2ccccc21.Cl (stereo not drawn) [Compound 41] |  |  | 25% | 
21 | Cl.Cn1c(=N)n(CC(O)c2ccc(Cl)cc2)c2ccccc21 (stereo not drawn) [Compound 54] |  |  | — (key: —: A dash (-) indicates less than 10% inhibition was observed in this test) | 
22 | CCN(CC)CCn1c(=N)n(CC(O)COc2ccc(Cl)cc2)c2ccccc21.Cl (racemic) [Compound 56] |  |  | — (key: —: A dash (-) indicates less than 10% inhibition was observed in this test) | 
